Legend:
Type in all cases: functional
[1] = system: K562; assay: Cytotoxicity against human K562 cells assessed as cell growth at 0.1 uM after 48 hrs by sulforhodamine B assay relative to control; conditions: K562, 48 h, read-out: Activity
[2] = system: A549; assay: Cytotoxicity against human A549/ATCC cells assessed as cell growth at 100 uM after 48 hrs by sulforhodamine B assay relative to control; conditions: A549, 48 h, read-out: Activity
[3] = system: HCT-15; assay: Cytotoxicity against human HCT15 cells assessed as cell growth at 10 uM after 48 hrs by sulforhodamine B assay relative to control; conditions: HCT-15, 48 h, read-out: Activity
[4] = system: NCI-H23; assay: Cytotoxicity against human NCI-H23 cells assessed as cell growth at 0.1 uM after 48 hrs by sulforhodamine B assay relative to control; conditions: NCI-H23, 48 h, read-out: Activity
[5] = system: NCI-H322M; assay: Cytotoxicity against human NCI-H322M cells assessed as cell growth at 0.01 uM after 48 hrs by sulforhodamine B assay relative to control; conditions: read-out: Activity
[6] = system: M14; assay: Cytotoxicity against human M14 cells assessed as cell growth at 0.01 uM after 48 hrs by sulforhodamine B assay relative to control; conditions: M14, 48 h, read-out: Activity
[7] = system: SF-268; assay: Cytotoxicity against human SF268 cells assessed as cell growth at 1 uM after 48 hrs by sulforhodamine B assay relative to control; conditions: SF-268, 48 h, read-out: Activity
[8] = system: OVCAR-4; assay: Cytotoxicity against human OVCAR4 cells assessed as cell growth at 1 uM after 48 hrs by sulforhodamine B assay relative to control; conditions: OVCAR-4, 48 h, read-out: Activity
[9] = system: NCI-H460; assay: Cytotoxicity against human NCI-H460 cells assessed as cell growth at 100 uM after 48 hrs by sulforhodamine B assay relative to control; conditions: NCI-H460, 48 h, read-out: Activity
[10] = system: CCRF-CEM; assay: Cytotoxicity against human CCRF-CEM cells assessed as cell growth at 10 uM after 48 hrs by sulforhodamine B assay relative to control; conditions: read-out: Activity
[11] = system: COLO 205; assay: Cytotoxicity against human COLO205 cells assessed as cell growth at 10 uM after 48 hrs by sulforhodamine B assay relative to control; conditions: COLO 205, 48 h, read-out: Activity
[12] = system: A549; assay: Cytotoxicity against human A549/ATCC cells assessed as cell growth at 10 uM after 48 hrs by sulforhodamine B assay relative to control; conditions: A549, 48 h, read-out: Activity
[13] = system: COLO 205; assay: Cytotoxicity against human COLO205 cells assessed as cell growth at 0.1 uM after 48 hrs by sulforhodamine B assay relative to control; conditions: COLO 205, 48 h, read-out: Activity
[14] = system: SW-620; assay: Cytotoxicity against human SW620 cells assessed as cell growth at 0.1 uM after 48 hrs by sulforhodamine B assay relative to control; conditions: SW-620, 48 h, read-out: Activity
[15] = system: HCT-116; assay: Cytotoxicity against human HCT116 cells assessed as cell growth at 10 uM after 48 hrs by sulforhodamine B assay relative to control; conditions: HCT-116, 48 h, read-out: Activity
[16] = system: SK-MEL-5; assay: Cytotoxicity against human SK-MEL-5 cells assessed as cell growth at 0.1 uM after 48 hrs by sulforhodamine B assay relative to control; conditions: SK-MEL-5, 48 h, read-out: Activity
[17] = system: SN12C; assay: Cytotoxicity against human SN12C cells assessed as cell growth at 100 uM after 48 hrs by sulforhodamine B assay relative to control; conditions: read-out: Activity
[18] = system: KM12; assay: Cytotoxicity against human KM12 cells assessed as cell growth at 0.01 uM after 48 hrs by sulforhodamine B assay relative to control; conditions: KM12, 48 h, read-out: Activity
[19] = system: ACHN; assay: Cytotoxicity against human ACHN cells assessed as cell growth at 10 uM after 48 hrs by sulforhodamine B assay relative to control; conditions: read-out: Activity
[20] = system: PC-3; assay: Cytotoxicity against human PC3 cells assessed as cell growth at 0.1 uM after 48 hrs by sulforhodamine B assay relative to control; conditions: PC-3, 48 h, read-out: Activity
[21] = system: NCI-H522; assay: Cytotoxicity against human NCI-H522 cells assessed as cell growth at 1 uM after 48 hrs by sulforhodamine B assay relative to control; conditions: NCI-H522, 48 h, read-out: Activity
[22] = system: SK-MEL-5; assay: Cytotoxicity against human SK-MEL-5 cells assessed as growth inhibition after 48 hrs by sulforhodamine B assay; conditions: SK-MEL-5, 48 h
[23] = system: SNB-19; assay: Cytotoxicity against human SNB19 cells assessed as growth inhibition after 48 hrs by sulforhodamine B assay; conditions: SNB-19, 48 h; for CC50: read-out: LC50 (the source's name)
[24] = system: ACHN; assay: Cytotoxicity against human ACHN cells assessed as cell growth at 1 uM after 48 hrs by sulforhodamine B assay relative to control; conditions: read-out: Activity
[25] = system: HL-60(TB); assay: Cytotoxicity against human HL-60(TB) cells assessed as cell growth at 100 uM after 48 hrs by sulforhodamine B assay relative to control; conditions: HL-60, 48 h, read-out: Activity
[26] = system: SK-MEL-5; assay: Cytotoxicity against human SK-MEL-5 cells assessed as cell growth at 1 uM after 48 hrs by sulforhodamine B assay relative to control; conditions: SK-MEL-5, 48 h, read-out: Activity
[27] = system: NCI-H23; assay: Cytotoxicity against human NCI-H23 cells assessed as cell growth at 10 uM after 48 hrs by sulforhodamine B assay relative to control; conditions: NCI-H23, 48 h, read-out: Activity
[28] = system: BT-549; assay: Cytotoxicity against human BT549 cells assessed as cell growth at 0.1 uM after 48 hrs by sulforhodamine B assay relative to control; conditions: BT-549, 48 h, read-out: Activity
[29] = system: RPMI-8226; assay: Cytotoxicity against human RPMI8226 cells assessed as growth inhibition after 48 hrs by sulforhodamine B assay; conditions: RPMI-8226, 48 h
[30] = system: MDA-MB-468; assay: Cytotoxicity against human MDA-MB-468 cells assessed as cell growth at 10 uM after 48 hrs by sulforhodamine B assay relative to control; conditions: MDA-MB-468, 48 h, read-out: Activity
[31] = system: NCI-H522; assay: Cytotoxicity against human NCI-H522 cells assessed as cell growth at 0.01 uM after 48 hrs by sulforhodamine B assay relative to control; conditions: NCI-H522, 48 h, read-out: Activity
[32] = system: SW-620; assay: Cytotoxicity against human SW620 cells assessed as cell growth at 10 uM after 48 hrs by sulforhodamine B assay relative to control; conditions: SW-620, 48 h, read-out: Activity
[33] = system: NCI-H23; assay: Cytotoxicity against human NCI-H23 cells assessed as cell growth at 100 uM after 48 hrs by sulforhodamine B assay relative to control; conditions: NCI-H23, 48 h, read-out: Activity
[34] = system: UACC-62; assay: Cytotoxicity against human UACC62 cells assessed as cell growth at 10 uM after 48 hrs by sulforhodamine B assay relative to control; conditions: UACC-62, 48 h, read-out: Activity
[35] = system: MDA-MB-231; assay: Cytotoxicity against human MDA-MB-231 cells assessed as cell growth at 10 uM after 48 hrs by sulforhodamine B assay relative to control; conditions: MDA-MB-231, 48 h, read-out: Activity
[36] = system: DU-145; assay: Cytotoxicity against human DU145 cells assessed as cell growth at 0.01 uM after 48 hrs by sulforhodamine B assay relative to control; conditions: DU-145, 48 h, read-out: Activity

With `COc1cc(-c2cc(/C=C/C(=O)c3ccc(Cl)c(Cl)c3)[nH]n2)cc(OC)c1OC` the growth at 0.1 µM [1] was 106%, the growth at 100 µM [2] was 2% and the growth at 10 µM [3] was 29%. For the same compound, the growth at 0.1 µM [4] was 92%, the growth at 0.01 µM [5] was 89% and the growth at 0.01 µM [6] was 98%. For the same compound, the growth at 1 µM [7] was 92%, the growth at 1 µM [8] was 107% and the growth at 100 µM [9] was -24%. For the same compound, the growth at 10 µM [10] was 9%, the growth at 10 µM [11] was 10% and the growth at 10 µM [12] was 68%. For the same compound, the growth at 0.1 µM [13] was 88%, the growth at 0.1 µM [14] was 99% and the growth at 10 µM [15] was 16%. It also gave a growth at 0.1 µM [16] of 97%, a growth at 100 µM [17] of 11% and a growth at 0.01 µM [18] of 96%. The growth at 10 µM [19] was 67%, the growth at 0.1 µM [20] was 100% and the growth at 1 µM [21] was 67%. The LC50 (concentration killing 50% of cells) [22] was greater than 100 µM, the TGI [22] was 46.9 µM and the TGI [23] was greater than 100 µM. It also gave a CC50 [23] greater than 100 µM, a growth at 1 µM [24] of 101% and a growth at 100 µM [25] of -33%. The growth at 1 µM [26] was 94%, the growth at 10 µM [27] was 79% and the growth at 0.1 µM [28] was 95%. The LC50 [29] was greater than 100 µM, the TGI [29] was 6.73 µM and the growth at 10 µM [30] was -13%. The growth at 0.01 µM [31] was 92%, the growth at 10 µM [32] was 47% and the growth at 100 µM [33] was 5%. The growth at 10 µM [34] was 63% and the growth at 10 µM [35] was 47%.

`COc1cc(-c2cc(/C=C/C(=O)c3ccc(N)cc3)[nH]n2)cc(OC)c1OC` was tested, and the growth at 0.1 µM [1] was 94%, the growth at 100 µM [2] was -52% and the growth at 10 µM [3] was -12%. The growth at 0.1 µM [4] was 105%, the growth at 0.01 µM [5] was 95% and the growth at 0.01 µM [6] was 94%. It also gave a growth at 1 µM [7] of 81%, a growth at 1 µM [8] of 62% and a growth at 100 µM [9] of -59%. For the same compound, the growth at 10 µM [10] was -22%, the growth at 10 µM [11] was -84% and the growth at 10 µM [12] was -15%. It also gave a growth at 0.1 µM [13] of 100%, a growth at 0.1 µM [14] of 95% and a growth at 10 µM [15] of -78%. It also gave a growth at 0.01 µM [36] of 107%, a growth at 0.1 µM [16] of 95% and a growth at 100 µM [17] of -86%. The growth at 0.01 µM [18] was 102%, the growth at 10 µM [19] was -61% and the growth at 0.1 µM [20] was 94%. The growth at 1 µM [21] was 77%, the GI50 [22] was 1.65 µM and the LC50 (concentration killing 50% of cells) [22] was 5.69 µM. For the same compound, the TGI [22] was 3.06 µM, the GI50 [23] was 2.34 µM and the TGI [23] was 9.98 µM. The CC50 [23] was 34 µM, the growth at 1 µM [24] was 79% and the growth at 100 µM [25] was -12%. It also gave a growth at 1 µM [26] of 90%, a growth at 10 µM [27] of -19% and a growth at 0.1 µM [28] of 93%. The GI50 [29] was 0.47 µM, the LC50 [29] was greater than 100 µM and the TGI [29] was 2.77 µM. It also gave a growth at 10 µM [30] of -58%, a growth at 0.01 µM [31] of 92% and a growth at 10 µM [32] of -20%. The growth at 100 µM [33] was -55%, the growth at 10 µM [34] was -69% and the growth at 10 µM [35] was 7%.

Compound `COc1cc(C(=O)/C=C/c2cc(-c3cc(OC)c(OC)c(OC)c3)n[nH]2)cc(OC)c1OC` has a growth at 0.1 µM [1] of 104%, a growth at 100 µM [2] of -66% and a growth at 10 µM [3] of -71%. For the same compound, the growth at 0.1 µM [4] was 101%, the growth at 0.01 µM [5] was 96% and the growth at 0.01 µM [6] was 96%. For the same compound, the growth at 1 µM [7] was 89%, the growth at 1 µM [8] was 79% and the growth at 100 µM [9] was -55%. For the same compound, the growth at 10 µM [10] was -7%, the growth at 10 µM [11] was -100% and the growth at 10 µM [12] was 6%. It also gave a growth at 0.1 µM [13] of 102%, a growth at 0.1 µM [14] of 97% and a growth at 10 µM [15] of -99%. It also gave a growth at 0.1 µM [16] of 95%, a growth at 100 µM [17] of -97% and a growth at 0.01 µM [18] of 101%. It also gave a growth at 10 µM [19] of -97%, a growth at 0.1 µM [20] of 92% and a growth at 1 µM [21] of 29%. It also gave an LC50 (concentration killing 50% of cells) [22] of 5.49 µM, a TGI [22] of 2.94 µM and a TGI [23] of 3.69 µM. For the same compound, the CC50 [23] was 8.2 µM, the growth at 1 µM [24] was 89% and the growth at 100 µM [25] was -33%. It also gave a growth at 1 µM [26] of 86%, a growth at 0.1 µM [28] of 105% and an LC50 [29] greater than 100 µM. It also gave a TGI [29] of 2.06 µM, a growth at 10 µM [30] of -90% and a growth at 0.01 µM [31] of 101%. The growth at 10 µM [32] was -89%, the growth at 100 µM [33] was -62% and the growth at 10 µM [34] was -69%. It also gave a growth at 10 µM [35] of -53%.
